Assay results as given in patent publication US20110082091A1, “Method for Preclinical Testing of Immunomodulatory Drugs” (TheraMAB GmbH, priority 2009, published 2011).
Entries after “also recorded” stand apart in the source; their conditions may differ.

How the values were obtained:
patients = patients receiving mAb therapy; cited from earlier work
human PBMCs [1] = test: Cytokine release from freshly isolated PBMCs (standard culture), cytokine bead array; type: cell-based; settings: fresh PBMCs, 10^6/ml, mAb 1 μg/ml, 24 hours
From the text: For the induction of cytokine release, the present invention as well as this comparative example uses a system of PBMC stimulation as described below to study the response of human PBMCs to immune-modulating agents. This system employs freshly prepared PBMCs, isolated from heparinized venous blood by centrifugation over a density gradient (Lymphocyte Separation Medium LSM 1077, PAA Laboratories, Pasching, Germany) following the manufacturer's instructions. […]
In this tissue culture system, freshly isolated PBMCs were stimulated with soluble TGN1412 provided by TheraMab GmbH, Wurzburg. […] After 24 hours, a panel of cytokines including the major pro- and anti-inflammatory factors detected in plasma of the volunteers of the TGN1412 trial (Suntharalingam et al., 2006) were analyzed by the cytokine-bead-array (CBA) technology (Becton Dickinson, Mountain View, Calif., USA) following the manufacturer's instructions. […]
PBMCs from a healthy donor were isolated by Ficoll density centrifugation and cultured in 0.2 ml RPMI1640 medium supplemented with 10% AB serum for 24 hours at 10^6/ml in 96 well flat bottom tissue culture plates. Cytokines in the supernatants were analyzed after 24 hours of incubation by cytokine bead array. […]

human PBMCs [2] = test: Cytokine release from precultured PBMCs restimulated at 10^6/ml, cytokine bead array; type: cell-based; settings: high-density precultured PBMCs, mAb 1 μg/ml, OKT3 compared with TGN1412
Protocol: For the experiment in FIG. 1B PBMCs from a healthy donor were cultured in 1.5 ml medium for 2 days at 10^7/ml in 24 well flat bottom tissue culture plates before being washed and readjusted to 10^6/ml. With these cells, the same experiment was performed as described in Example 1.
For the experiment of FIG. 3 PBMCs were cultured at 10^6/ml (left bars) or at 10^7/ml (right bars) for 2 days before being stimulated by TGN1412 at 10^6/ml as described in FIG. 1.
For the experiment of FIG. 4 fresh PBMCs (left bars of triplets), and PBMCs precultured at 10^7/ml for 24 (middle bars of triplets) or 48 hours (right bars of triplets) were stimulated with OKT3 or TGN1412 for 24 hours under the conditions given in FIG. 1.
For the experiment of FIG. 5 PBMCs were cultured for two days at high density (10^7/ml, right bars of triplets) or at low density (10^6/ml, left and middle bars of triplets) in 1.5 ml cultures. In the group shown as middle bars of triplets, these low density cultures additionally contained an insert with a semipermeable membrane on which additional PBMCs were cultured at high-density (10^6/ml below membrane, 10^7/ml above membrane, middle bars of triplets).
Cell density. […]
High-density precultured PBMCs were prepared as in FIG. 1B and stimulated with 1 μg/ml of OKT3 or TGN1412. Supernatants were harvested at the times indicated and TNF content was analysed as in FIG. 1.

human PBMCs [3] = test: PBMC proliferation, 3H-thymidine incorporation; type: cell-based; settings: 3H-thymidine on day 3, 16 hours
Protocol: Fresh and precultured PBMCs were prepared and cultured as described for FIGS. 1 A and B, respectively. On day 3, 1 μCi of 3H-thymidine was added, and cultures were harvested 16 hours later and processed for liquid scintillation counting. Besides cytokine release, polyclonal T-cell activation results in proliferation which can be measured as radioactivity incorporated, here incorporated as tritiated thymidine. […] Thus, proliferation can also be used as a readout.

CD4 T-cells in PBMCs = test: Intracellular TNF / IFN-gamma staining of CD4 T-cell subsets (flow cytometry, brefeldin A); type: cell-based, human; settings: mAb 1 μg/ml, 18 hours, brefeldin A last 4 hours; CD45RO+ vs CD45RO- CD4 T-cells
Protocol: 2 day high-density precultured PBMCs were stimulated for 18 hours with 1 μg/ml of OKT3 or of TGN1412. Instead of 18 hours stimulation for a period of time between 15 to 20 hours, preferably 16 to 18 hours, is generally possible. During the last 4 hours of culture, 5 μg/ml of brefeldin A was added to block cellular export of cytokines. After cell-surface staining with fluorochome-conjugated mAb to CD4 and CD45RO (memory marker), cells were fixed, permeabilized and stained with mAb to TNF—left panels—or IFNgamma—right panels—(all from BD Pharmingen, Mountain View, Calif., USA)
15.000 live-gated events were acquired on a BD Calibur flow cytometer and data were analyzed using FlowJo software (Three Star Inc., Ashland, Oreg., USA). The cytokine storm elicited by OKT3 in patients is a well-known phenomenon, and the accompanying information provided with this drug (Muromonomab, Janssen-CILAG) explicitly warns against this syndrome. […] In parallel, the cell surface phenotype of the stimulated PBMCs was determined. The main cytokine-producing T-cell subset, the CD4 T-cells, were thus identified and further subdivided into naive (CD45R0−) and memory (CD45RO+) subsets.

PBMCs [4] = type: cell-based, human
PBMCs [5] = type: cell-based, human; remark: listed apart in the source

OKT3: CD3-specific mAb addressing the T-cell antigen receptor, clinical-grade, Janssen-Cilag
systemic cytokine release (patients): induce the systemic release of proinflammatory cytokines
cytokine release (TNF, IFN-gamma, IL-2, IL-10) (human PBMCs [1]): highly effective in inducing TNF, IFN-gamma, and IL-2; also recorded: ability
kinetics of TNF release (human PBMCs [2]): follows the same kinetics
proliferation (human PBMCs [3]; 2 day high-density precultured PBMCs): stimulated the proliferation of both, fresh and precultured PBMCs
proliferation (human PBMCs [3]; fresh PBMCs): stimulated the proliferation of both, fresh and precultured PBMCs
cellular source of TNF and IFN-gamma production (CD4 T-cells in PBMCs): predominantly in the CD4 memory subset

phytohemagglutinin [PHA]
proliferative T-cell response (PBMCs [4]): strongly enhanced

concanavalin A [ConA]
proliferative T-cell response (PBMCs [4]): strongly enhanced

Staphylococcal Enterotoxin B
proliferative response (PBMCs [5]): strongly enhances the sensitivity of this assay
